Patent publication US8168384B2, “Non-thiopurine methyltransferase related effects in 6-mercaptopurine therapy” (Guy's and St. Thomas' NHS Foundation Trust, priority 2007, dated 2012)

What was measured:
[1] = remaining non-/partial responder patients
[2] = Cohort of patients starting azathioprine therapy: clinical response, side-effects and association with XDH, MOCOS and AOX SNP genotype; details: cohort of 168 patients starting azathioprine therapy

Cn1cnc([N+](=O)[O-])c1Sc1ncnc2nc[nH]c12 [azathioprine, 6-(1-methyl-4-nitro-5-imidazolylthio) purine]
difference in TGN levels between wild-type and heterozygous for the AOX SNP [1]: no significant difference | partial responders [2]: 7 patients | patients deemed to have no response to azathioprine [2]: 35 patients
